Columns and labels:
Assay type in all cases: in vivo
[1] = system: bulrush; test: Test Example 2: herbicidal effects during the vegetation period under submerged conditions; conditions: treatment during the vegetation period under submerged conditions; dose 2.52 g/a
Procedure, shortened: (§1)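 Barnyardgrass, bulrush and ducksalad were co-sown in alluvial soil flooded to 4 cm and grown in a greenhouse at 25 to 30° C. At the 1- or 2-leaf stage, water-diluted emulsifiable concentrates went onto the water surface at set doses (g/a). Herbicidal effect was scored three weeks later on a graded scale.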

[2] = system: barnyardgrass; test: as above; conditions: treatment during the vegetation period under submerged conditions; dose 2.52 g/a
Procedure, shortened: as §1

[3] = system: ducksalad; test: as above; conditions: treatment during the vegetation period under submerged conditions; dose 2.52 g/a
Procedure, shortened: as §1

[4] = system: bulrush; test: Test Example 1: herbicidal effects in preemergence treatment under submerged conditions; conditions: dose 2.52 g/a
Procedure, shortened: (§2)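 Alluvial soil was flooded to 4 cm, sown with barnyardgrass, bulrush and ducksalad, and planted with 2.5-leaf rice seedlings. On the seeding day, water-diluted emulsifiable concentrates were applied to the water surface at set doses (g/a). After three weeks in a 25 to 30° C. greenhouse, mortality was scored 0–5.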

[5] = system: barnyardgrass; test: as above; conditions: dose 2.52 g/a
Procedure, shortened: as §2

[6] = system: ducksalad; test: as above; conditions: dose 2.52 g/a
Procedure, shortened: as §2

[7] = system: wild oat; test: Test Example 4: herbicidal effect in foliage treatment; conditions: dose 6.3 g/a, three weeks after application
Procedure, shortened: (§3)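 Sowing in sterilized diluvial soil, ~1.5 cm cover; growth 14 d, 25–30° C greenhouse; foliar spray of water-diluted EC at predetermined g/a; scoring 3 wk later on graded scale.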

[8] = system: beadstraw; test: as above; conditions: dose 6.3 g/a, three weeks after application
Procedure, shortened: as §3

[9] = system: common ragweed; test: as above; conditions: dose 6.3 g/a, three weeks after application
Procedure, shortened: as §3

[10] = system: barnyardgrass; test: as above; conditions: dose 6.3 g/a, three weeks after application
Procedure, shortened: as §3

[11] = system: common chickweed; test: as above; conditions: dose 6.3 g/a, three weeks after application
Procedure, shortened: as §3

[12] = system: water foxtail; test: as above; conditions: dose 6.3 g/a, three weeks after application
Procedure, shortened: as §3

[13] = system: giant foxtail; test: as above; conditions: dose 6.3 g/a, three weeks after application
Procedure, shortened: as §3

[14] = system: common lambsquater; test: as above; conditions: dose 6.3 g/a, three weeks after application
Procedure, shortened: as §3

[15] = system: redroot pigweed; test: as above; conditions: dose 6.3 g/a, three weeks after application
Procedure, shortened: as §3

[16] = system: large crabgrass; test: as above; conditions: dose 6.3 g/a, three weeks after application
Procedure, shortened: as §3

[17] = system: Italian ryegrass; test: as above; conditions: dose 6.3 g/a, three weeks after application
Procedure, shortened: as §3

[18] = system: wild oat; test: Test Example 3: herbicidal effects in soil treatment; conditions: dose 6.3 g/a
Procedure, shortened: (§4)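 Seeds were sown in sterilized diluvial soil and covered with about 1.5 cm of soil. Compounds, formulated as emulsifiable concentrates and diluted with water, were sprayed evenly over the soil surface at set doses in g/a. Herbicidal effect was scored on a rating scale three weeks later.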

[19] = system: common ragweed; test: as above; conditions: dose 6.3 g/a
Procedure, shortened: as §4

[20] = system: barnyardgrass; test: as above; conditions: dose 6.3 g/a
Procedure, shortened: as §4

[21] = system: common chickweed; test: as above; conditions: dose 6.3 g/a
Procedure, shortened: as §4

[22] = system: water foxtail; test: as above; conditions: dose 6.3 g/a
Procedure, shortened: as §4

[23] = system: giant foxtail; test: as above; conditions: dose 6.3 g/a
Procedure, shortened: as §4

[24] = system: common lambsquater; test: as above; conditions: dose 6.3 g/a
Procedure, shortened: as §4

[25] = system: redroot pigweed; test: as above; conditions: dose 6.3 g/a
Procedure, shortened: as §4

[26] = system: large crabgrass; test: as above; conditions: dose 6.3 g/a
Procedure, shortened: as §4

[27] = system: Italian ryegrass; test: as above; conditions: dose 6.3 g/a
Procedure, shortened: as §4

[28] = system: transplanted rice; test: Test Example 1: preemergence treatment under submerged conditions, effect on crop; conditions: dose 2.52 g/a
Procedure, shortened: as §2

Row | Structure (SMILES) | B: bulrush, herbicidal effect (evaluation scale 0-5) [1] | A: barnyardgrass, herbicidal effect (evaluation scale 0-5) [2] | C: ducksalad, herbicidal effect (evaluation scale 0-5) [3] | B: bulrush, herbicidal effect (evaluation scale 0-5) [4] | A: barnyardgrass, herbicidal effect (evaluation scale 0-5) [5] | C: ducksalad, herbicidal effect (evaluation scale 0-5) [6] | F: wild oat, herbicidal effect [7] | O: beadstraw, herbicidal effect [8] | J: common ragweed, herbicidal effect [9] | A: barnyardgrass, herbicidal effect [10] | N: common chickweed, herbicidal effect [11] | G: water foxtail, herbicidal effect [12] | E: giant foxtail, herbicidal effect [13] | L: common lambsquater, herbicidal effect [14] | D: large crabgrass, herbicidal effect [16] | H: Italian ryegrass, herbicidal effect [17] | F: wild oat, herbicidal effect (evaluation scale 0-5) [18] | J: common ragweed, herbicidal effect (evaluation scale 0-5) [19] | A: barnyardgrass, herbicidal effect (evaluation scale 0-5) [20] | N: common chickweed, herbicidal effect (evaluation scale 0-5) [21] | also measured
1 | CC1(C)CC(=O)N(Cc2ccccc2NS(=O)(=O)C(F)(F)F)CO1 [II-17, 6,6-dimethyl-3-(2-trifluoromethanesulfonylaminobenzyl)-1,3-oxazinan-4-one] | 5 (mortality of 90% or above (nearly complete death)) | 5 (mortality of 90% or above (nearly complete death)) | 5 (mortality of 90% or above (nearly complete death)) | 5 (mortality of 90% or above (nearly complete death)) | 5 (mortality of 90% or above (nearly complete death)) | 5 (mortality of 90% or above (nearly complete death)) | 0 (mortality of less than 5% (almost ineffective)) | 5 (mortality of 90% or above (nearly complete death)) | 5 (mortality of 90% or above (nearly complete death)) | 5 (mortality of 90% or above (nearly complete death)) | 4 (mortality of at least 70% and less than 90%) | 5 (mortality of 90% or above (nearly complete death)) | 5 (mortality of 90% or above (nearly complete death)) | 4 (mortality of at least 70% and less than 90%) | 5 (mortality of 90% or above (nearly complete death)) | 4 (mortality of at least 70% and less than 90%) | 0 (mortality of less than 5% (almost ineffective)) | 5 (mortality of 90% or above (nearly complete death)) | 5 (mortality of 90% or above (nearly complete death)) | 4 (mortality of at least 70% and less than 90%) | K: redroot pigweed, herbicidal effect [15]: 1 (mortality of at least 5% and less than 20%); G: water foxtail, herbicidal effect (evaluation scale 0-5) [22]: 5 (mortality of 90% or above (nearly complete death)); E: giant foxtail, herbicidal effect (evaluation scale 0-5) [23]: 5 (mortality of 90% or above (nearly complete death)); L: common lambsquater, herbicidal effect (evaluation scale 0-5) [24]: 2 (mortality of at least 20% and less than 40%); K: redroot pigweed, herbicidal effect (evaluation scale 0-5) [25]: 1 (mortality of at least 5% and less than 20%); D: large crabgrass, herbicidal effect (evaluation scale 0-5) [26]: 5 (mortality of 90% or above (nearly complete death)); H: Italian ryegrass, herbicidal effect (evaluation scale 0-5) [27]: 4 (mortality of at least 70% and less than 90%)
2 | CC1(C)CC(=O)N(Cc2ccccc2N(C(=O)C2CC2)S(=O)(=O)C(F)(F)F)CO1 [II-20] | 5 (mortality of 90% or above (nearly complete death)) | 5 (mortality of 90% or above (nearly complete death)) | 5 (mortality of 90% or above (nearly complete death)) | 5 (mortality of 90% or above (nearly complete death)) | 5 (mortality of 90% or above (nearly complete death)) | 5 (mortality of 90% or above (nearly complete death)) | 0 (mortality of less than 5% (almost ineffective)) | 4 (mortality of at least 70% and less than 90%) | 5 (mortality of 90% or above (nearly complete death)) | 5 (mortality of 90% or above (nearly complete death)) | 3 (mortality of at least 40% and less than 70%) | 5 (mortality of 90% or above (nearly complete death)) | 5 (mortality of 90% or above (nearly complete death)) | 0 (mortality of less than 5% (almost ineffective)) | 5 (mortality of 90% or above (nearly complete death)) | 4 (mortality of at least 70% and less than 90%) | 0 (mortality of less than 5% (almost ineffective)) | 4 (mortality of at least 70% and less than 90%) | 5 (mortality of 90% or above (nearly complete death)) | 4 (mortality of at least 70% and less than 90%) | K: redroot pigweed, herbicidal effect [15]: 0 (mortality of less than 5% (almost ineffective)); G: water foxtail, herbicidal effect (evaluation scale 0-5) [22]: 5 (mortality of 90% or above (nearly complete death)); E: giant foxtail, herbicidal effect (evaluation scale 0-5) [23]: 4 (mortality of at least 70% and less than 90%); L: common lambsquater, herbicidal effect (evaluation scale 0-5) [24]: 0 (mortality of less than 5% (almost ineffective)); K: redroot pigweed, herbicidal effect (evaluation scale 0-5) [25]: 0 (mortality of less than 5% (almost ineffective)); D: large crabgrass, herbicidal effect (evaluation scale 0-5) [26]: 4 (mortality of at least 70% and less than 90%); H: Italian ryegrass, herbicidal effect (evaluation scale 0-5) [27]: 5 (mortality of 90% or above (nearly complete death))
3 | CCOC(=O)N(c1ccccc1CN1COC(C)(C)CC1=O)S(=O)(=O)C(F)(F)F [II-23, 6,6-dimethyl-3-[2-(N-ethoxycarbonyl-N-trifluoromethanesulfonyl)aminobenzyl]-1,3-oxazinan-4-one] | 5 (mortality of 90% or above (nearly complete death)) | 5 (mortality of 90% or above (nearly complete death)) | 5 (mortality of 90% or above (nearly complete death)) | 5 (mortality of 90% or above (nearly complete death)) | 5 (mortality of 90% or above (nearly complete death)) | 5 (mortality of 90% or above (nearly complete death)) | 0 (mortality of less than 5% (almost ineffective)) | 5 (mortality of 90% or above (nearly complete death)) | 5 (mortality of 90% or above (nearly complete death)) | 5 (mortality of 90% or above (nearly complete death)) | 4 (mortality of at least 70% and less than 90%) | 5 (mortality of 90% or above (nearly complete death)) | 4 (mortality of at least 70% and less than 90%) | 4 (mortality of at least 70% and less than 90%) | 5 (mortality of 90% or above (nearly complete death)) | 4 (mortality of at least 70% and less than 90%) | 0 (mortality of less than 5% (almost ineffective)) | 5 (mortality of 90% or above (nearly complete death)) | 5 (mortality of 90% or above (nearly complete death)) | 4 (mortality of at least 70% and less than 90%) | a: transplanted rice, effect on crop (evaluation scale 0-5) [28]: 0 (mortality of less than 5% (almost ineffective)); G: water foxtail, herbicidal effect (evaluation scale 0-5) [22]: 5 (mortality of 90% or above (nearly complete death)); E: giant foxtail, herbicidal effect (evaluation scale 0-5) [23]: 5 (mortality of 90% or above (nearly complete death)); L: common lambsquater, herbicidal effect (evaluation scale 0-5) [24]: 2 (mortality of at least 20% and less than 40%); D: large crabgrass, herbicidal effect (evaluation scale 0-5) [26]: 5 (mortality of 90% or above (nearly complete death)); H: Italian ryegrass, herbicidal effect (evaluation scale 0-5) [27]: 4 (mortality of at least 70% and less than 90%)

Source: US20120029187A1, “HALOALKYLSULFONANILIDE DERIVATIVE” (Nissan Chemical Industries, Ltd., priority 2009, published 2012)
